Legend:
Assay type in all cases: cell-based, Human Cytomegalovirus
HCMV AD169 virus [1] = experiment: HCMV AD169 CPE assay (MTS dye reduction, MRC-5 cells); conditions: Human betaherpesvirus 5, AD169, MRC5, 216 h, 9 days, read-out: EC50 (nM) Example A
Experimental: HCMV AD169 CPE Assay This assay format is a CPE (Cytopathic effect)-based assay that determines the ability of compounds to protect cells against infection with a dye reduction assay (MTS of CellTiter 96® AQueous Non-Radioactive Cell Proliferation Assay from Promega). The conversion of MTS into aqueous, soluble formazan is performed by dehydrogenase enzymes found in metabolically active cells. The quantity of formazan product determined by absorbance at 490 nm is directly proportional to the number of living cells in culture. [table] Serial dilutions of the DMSO stock compound solution are performed using DMSO in columns 2-11 and 14-23. DMSO alone is present in columns 1, 12, 13 and 24. Four μL of the DMSO serial dilutions is obtained and diluted using 96 μL of D-MEM 5% FBS culture medium to obtain 4% DMSO (7×). To perform the assay, 10 μL of the freshly prepared 4% DMSO serial dilution plate is added to the assay plate containing 40 μL of MRC-5 cells plated the day before (10000 cells per well). Twenty μL of diluted virus is added to columns 2-12 and 14-24 and only D-MEM 5% FBS medium to uninfected control (columns 1 and 13) for a final DMSO concentration of 0.6%. The virus dilution is based on the amount of virus required to obtain a Signal-to-Background of 3-4 (generally between 0.1 and 1 μL of virus stock per well or MOI=0.05). The assay plates are incubated at 37° C. with 5% CO2 for 9 days in order to obtain 100% CPE in infected control without compound (columns 12 and 24). Ten μL of freshly mixed room temperature MTS/PMS (1:20 v/v) is added and the plates are incubated at 37° C. with 5% CO2 for 4-5 h (until signal saturation at 2.3 in the 100% CPE control). The plates are sealed with TopSeal for biosafety and read on the Envision plate reader (Perkin-Elmer) or equivalent at OD 492 nm.

[2] = test system: HCMV AD169-Bac-Luc2 US2-US6 clone #26 virus; experiment: HCMV AD169-Bac luciferase assay (MRC-5 cells); conditions: Human betaherpesvirus 5, AD169, MRC5, 72 h, read-out: EC50 (nM) Example B
Source text: HCMV AD169-Bac Luciferase Assay
This assay format is a luciferase reporter-based assay that determines the ability of compounds to inhibit the infection by detecting a luciferase signal decrease following the addition of BIGlo substrate (preparation indicated below) directly in the culture media. Mono-oxygenation of luciferin is catalyzed by luciferase in the presence of Mg2+, ATP and molecular oxygen. The generation of oxyluciferin is a luminescent reaction that can be detected with the proper platereader. Human Cytomegalovirus AD169-Bac is obtained from Dr. Thomas Shenk at Princeton University (reference paper Yu et al. 2002—J. Virol. 76 (5):2316-2328, herein incorporated by reference) and modified by recombineering to introduce a humanized firefly luciferase gene (Luc2) at the US2-US6 position in the HCMV genome. The virus is expanded in MRC-5 cells.
Serial dilutions of the DMSO stock compound solution are performed using DMSO in columns 2-11 and 14-23. DMSO alone is present in columns 1, 12, 13 and 24. Four μL of the DMSO serial dilutions is obtained and diluted using 96 μL of D-MEM 5% FBS culture medium to obtain 4% DMSO (7×).
To perform the assay, 7 μL of the freshly prepared 4% DMSO serial dilution plate is added to the assay plate containing 25 μL of MRC-5 cells plated the day before (10000 cells per well). Seventeen μL of diluted virus is added to columns 2-12 and 14-24 and only D-MEM 5% FBS medium to uninfected control (columns 1 and 13) for a final DMSO concentration of 0.6%. The virus dilution is based on the amount of virus required to obtain the highest luciferase signal possible without CPE (generally between 0.05 and 1 μL of virus stock per well or MOI=0.02). The assay plates are incubated at 37° C. with 5% CO2 for 3 days. Fifteen μL of room temperature BIGlo buffer is added to room temperature assay plates also incubated at room temperature for 15 minutes. The plates are sealed with TopSeal for biosafety and the luminescence signal is read on the TopCount plate reader (Perkin-Elmer) or equivalent.

HCMV AD169 virus [3] = experiment: HCMV AD169 qPCR 96-well assay (viral DNA replication, MRC-5 cells); conditions: Human betaherpesvirus 5, AD169, MRC5, 72 h, qPCR of viral DNA, 3 days, read-out: EC50 (nM) Example C
Experimental: HCMV AD169 qPCR 96-Well Assay
The hCMV quantitative PCR (qPCR) assay evaluates the ability of a compound to inhibit, directly or indirectly, the replication of hCMV viral DNA during the first 72 h following the infection. Compounds that inhibit either entry or the hCMV polymerase are active in this assay. Compounds are tested in the qPCR assay in 96-well plates, using a 9-point dose-response with 8 compounds for each 96-well plate. The assay was adapted from the method described by Schnepf et al., Rapid determination of antiviral drug susceptibility of human cytomegalovirus by real-time PCR, Antiviral Research 81 (2009) 64-67. […]

Work on `O=C(Cc1cccc(C(F)(F)F)c1)Nc1ccc(NC(=O)c2cscn2)nc1` [Compound 1027] yielded an EC50 (HCMV AD169 virus [1]) of 2800 nM.
`CC(C(=O)Nc1nc2ccc(NC(=O)c3cscn3)cc2[nH]1)c1cccc(Cl)c1` (stereo not shown) [Compound 1037] gave an EC50 [2] of 69 nM.
Work on `N#Cc1cccc(CC(=O)Nc2nc3ccc(NC(=O)c4cscn4)cc3s2)c1` [Compound 1098] yielded an EC50 [2] of 74 nM.
`O=C(Cc1ccc(NC(=O)c2cscn2)cc1)Nc1cc(C(F)(F)F)cc(C(F)(F)F)c1` [Compound 1122] gave an EC50 (HCMV AD169 virus [1]) of 142 nM and an EC50 [2] of 110 nM.
For `O=C(Cc1ccc(NC(=O)c2cscn2)nc1)Nc1cc(C(F)(F)F)cc(C(F)(F)F)c1` [Compound 1131], the EC50 (HCMV AD169 virus [1]) was 1520 nM, the EC50 [2] was 143 nM and the EC50 (HCMV AD169 virus [3]) was 220 nM.
Work on `CC(C(=O)Nc1nc2ccc(NC(=O)c3cscn3)cc2n1C)c1cccc(Cl)c1` (stereo not shown) [Compound 1137] yielded an EC50 (HCMV AD169 virus [1]) of 1700 nM and an EC50 [2] of 1600 nM.
With `O=C(Cc1ccc(NC(=O)c2cscn2)cn1)Nc1cc(C(F)(F)F)cc(C(F)(F)F)c1` [Compound 1143] the EC50 (HCMV AD169 virus [1]) was 555 nM and the EC50 [2] was 51 nM.
With `O=C(Cn1ccc(NC(=O)c2cscn2)cc1=O)Nc1cccc(C(F)(F)F)c1` [Compound 1148] the EC50 [2] was 658 nM.
For `O=C(Cc1cccc(C(F)(F)F)c1)Nc1ccc2nc(NC(=O)c3cscn3)sc2c1` [Compound 1158], the EC50 (HCMV AD169 virus [1]) was 250 nM, the EC50 [2] was 45 nM and the EC50 (HCMV AD169 virus [3]) was 180 nM.

From patent US9334249B2, “Inhibitors of cytomegalovirus” (Boehringer Ingelheim International GmbH, priority 2012, dated 2016)
